Data: PMC7557242 (ACS Omega, 2020)
Where two headings read alike, the source gives them in different places.

How the values were obtained:
[1] = test system: SAs from different species; settings: CSA versus HSA
serum albumin (SA) = settings: after intravenous injection, in most of the cases; cited from earlier work
human serum albumin = settings: previous study, cited from earlier work
plasma protein = settings: cited from earlier work

## CC(C)c1cccc(C(C)C)c1O [PR, 2,6-Diisopropylphenol]
[1]
  difference between UC50 values: 0.07
Serum albumin (SA)
  PR bound to SA: approximately 80%
Human serum albumin; PR1
  ΔGPBSA: -23.44 kcal/mol
Human serum albumin; PR2
  ΔGPBSA: -19.03 kcal/mol
Plasma protein
  % PPB (plasma protein binding): 96–98%
